Numbers after ± are expanded uncertainties.
Assay: xn = mol fraction of the nth substance listed
Conditions: for mass density: 101 kPa, Liquid

CCCCO [butan-1-ol] + CCCCCCC
Conditions | mass density [kg/m3] | surface tension liquid-gas [mN/m]
288.15 K, x2 = 0.0498 | – | 24.31 ± 0.29
288.15 K, x2 = 0.051 | 803.35 ± 0.44 | –
288.15 K, x2 = 0.0998 | 794.33 ± 0.46 | –
288.15 K, x2 = 0.1007 | – | 23.81 ± 0.29
288.15 K, x2 = 0.2005 | – | 22.99 ± 0.28
288.15 K, x2 = 0.2067 | 776.12 ± 0.49 | –
288.15 K, x2 = 0.3043 | – | 22.37 ± 0.28
288.15 K, x2 = 0.3087 | 760.61 ± 0.51 | –
288.15 K, x2 = 0.4058 | – | 21.88 ± 0.28
288.15 K, x2 = 0.4059 | 747.14 ± 0.53 | –
288.15 K, x2 = 0.5052 | 734.63 ± 0.56 | –
288.15 K, x2 = 0.5054 | – | 21.56 ± 0.27
288.15 K, x2 = 0.5986 | 724.01 ± 0.57 | –
288.15 K, x2 = 0.599 | – | 21.38 ± 0.27
288.15 K, x2 = 0.7072 | – | 21.17 ± 0.27
288.15 K, x2 = 0.7259 | 710.89 ± 0.6 | –
288.15 K, x2 = 0.8008 | – | 21.03 ± 0.27
288.15 K, x2 = 0.8066 | 703.39 ± 0.61 | –
288.15 K, x2 = 0.8982 | – | 20.94 ± 0.27
288.15 K, x2 = 0.908 | 694.8 ± 0.62 | –
288.15 K, x2 = 0.9523 | 691.35 ± 0.63 | –
288.15 K, x2 = 0.9532 | – | 20.87 ± 0.27
293.15 K, x2 = 0.0503 | – | 23.76 ± 0.28
293.15 K, x2 = 0.051 | 799.52 ± 0.45 | –
293.15 K, x2 = 0.0998 | 790.46 ± 0.46 | –
293.15 K, x2 = 0.1008 | – | 23.26 ± 0.28
293.15 K, x2 = 0.201 | – | 22.44 ± 0.28
293.15 K, x2 = 0.2067 | 772.16 ± 0.49 | –
293.15 K, x2 = 0.2986 | – | 21.85 ± 0.28
293.15 K, x2 = 0.3087 | 756.57 ± 0.52 | –
293.15 K, x2 = 0.4002 | – | 21.37 ± 0.27
293.15 K, x2 = 0.4059 | 743 ± 0.54 | –
293.15 K, x2 = 0.5009 | – | 21.01 ± 0.27
293.15 K, x2 = 0.5052 | 730.46 ± 0.56 | –
293.15 K, x2 = 0.5986 | 719.8 ± 0.58 | –
293.15 K, x2 = 0.5998 | – | 20.79 ± 0.27
293.15 K, x2 = 0.7034 | – | 20.62 ± 0.27
293.15 K, x2 = 0.7259 | 706.65 ± 0.6 | –
293.15 K, x2 = 0.7971 | – | 20.51 ± 0.27
293.15 K, x2 = 0.8066 | 699.15 ± 0.62 | –
293.15 K, x2 = 0.902 | – | 20.37 ± 0.27
293.15 K, x2 = 0.908 | 690.55 ± 0.63 | –
293.15 K, x2 = 0.9511 | – | 20.33 ± 0.27
293.15 K, x2 = 0.9523 | 687.11 ± 0.64 | –
298.15 K, x2 = 0.051 | 795.66 ± 0.45 | –
298.15 K, x2 = 0.056 | – | 23.17 ± 0.28
298.15 K, x2 = 0.0937 | – | 22.75 ± 0.28
298.15 K, x2 = 0.0998 | 786.55 ± 0.47 | –
298.15 K, x2 = 0.2067 | 768.15 ± 0.5 | –
298.15 K, x2 = 0.2085 | – | 21.94 ± 0.28
298.15 K, x2 = 0.302 | – | 21.35 ± 0.27
298.15 K, x2 = 0.3087 | 752.48 ± 0.52 | –
298.15 K, x2 = 0.3975 | – | 20.86 ± 0.27
298.15 K, x2 = 0.4059 | 738.85 ± 0.55 | –
298.15 K, x2 = 0.5052 | 726.25 ± 0.57 | –
298.15 K, x2 = 0.5054 | – | 20.44 ± 0.27
298.15 K, x2 = 0.5986 | 715.56 ± 0.59 | –
298.15 K, x2 = 0.6086 | – | 20.17 ± 0.27
298.15 K, x2 = 0.7259 | 702.38 ± 0.61 | –
298.15 K, x2 = 0.806 | – | 19.99 ± 0.27
298.15 K, x2 = 0.8066 | 694.86 ± 0.62 | –
298.15 K, x2 = 0.908 | 686.27 ± 0.64 | –
298.15 K, x2 = 0.9082 | – | 19.85 ± 0.27
298.15 K, x2 = 0.9502 | – | 19.81 ± 0.27
298.15 K, x2 = 0.9523 | 682.83 ± 0.64 | –
303.15 K, x2 = 0.0491 | – | 22.62 ± 0.28
303.15 K, x2 = 0.051 | 791.77 ± 0.46 | –
303.15 K, x2 = 0.0997 | – | 22.16 ± 0.28
303.15 K, x2 = 0.0998 | 782.61 ± 0.47 | –
303.15 K, x2 = 0.2052 | – | 21.41 ± 0.27
303.15 K, x2 = 0.2067 | 764.11 ± 0.5 | –
303.15 K, x2 = 0.3051 | – | 20.81 ± 0.27
303.15 K, x2 = 0.3087 | 748.35 ± 0.53 | –
303.15 K, x2 = 0.4003 | – | 20.3 ± 0.27
303.15 K, x2 = 0.4059 | 734.65 ± 0.55 | –
303.15 K, x2 = 0.504 | – | 19.92 ± 0.27
303.15 K, x2 = 0.5052 | 722 ± 0.57 | –
303.15 K, x2 = 0.5966 | – | 19.72 ± 0.26
303.15 K, x2 = 0.5986 | 711.28 ± 0.59 | –
303.15 K, x2 = 0.7052 | – | 19.48 ± 0.26
303.15 K, x2 = 0.7259 | 698.07 ± 0.61 | –
303.15 K, x2 = 0.8014 | – | 19.39 ± 0.26
303.15 K, x2 = 0.8066 | 690.54 ± 0.63 | –
303.15 K, x2 = 0.9024 | – | 19.3 ± 0.26
303.15 K, x2 = 0.908 | 681.95 ± 0.64 | –
303.15 K, x2 = 0.9507 | – | 19.27 ± 0.26
303.15 K, x2 = 0.9523 | 678.52 ± 0.65 | –
308.15 K, x2 = 0.0507 | – | 22.35 ± 0.28
308.15 K, x2 = 0.051 | 787.85 ± 0.47 | –
308.15 K, x2 = 0.0998 | 778.63 ± 0.48 | –
308.15 K, x2 = 0.1017 | – | 21.89 ± 0.27
308.15 K, x2 = 0.2054 | – | 20.98 ± 0.27
308.15 K, x2 = 0.2067 | 760.04 ± 0.51 | –
308.15 K, x2 = 0.3025 | – | 20.33 ± 0.27
308.15 K, x2 = 0.3087 | 744.18 ± 0.54 | –
308.15 K, x2 = 0.4017 | – | 19.87 ± 0.26
308.15 K, x2 = 0.4059 | 730.42 ± 0.56 | –
308.15 K, x2 = 0.5052 | 717.71 ± 0.58 | 19.53 ± 0.26
308.15 K, x2 = 0.5986 | 706.95 ± 0.6 | –
308.15 K, x2 = 0.6007 | – | 19.28 ± 0.26
308.15 K, x2 = 0.7259 | 693.71 ± 0.62 | –
308.15 K, x2 = 0.7306 | – | 19.2 ± 0.26
308.15 K, x2 = 0.8066 | 686.18 ± 0.63 | –
308.15 K, x2 = 0.8079 | – | 19.1 ± 0.26
308.15 K, x2 = 0.908 | 677.61 ± 0.65 | –
308.15 K, x2 = 0.9086 | – | 18.99 ± 0.26
308.15 K, x2 = 0.9523 | 674.17 ± 0.66 | –
308.15 K, x2 = 0.9532 | – | 18.9 ± 0.26

Reference: the NIST ThermoML archive (doi:10.1021/je060179e)
